# Values of other authors, collected in PMC3618964 (Journal of medicinal chemistry, 2010).
# Target: SaDHFR
# Conditions: read-out: Ki value (SaDHFR)
smiles,measurement,value
CCc1nc(N)nc(N)c1C#CCc1cc(OC)ccc1OC [Compound 9],Ki,9.9 nM
